{
  "source": "patent EP2027081B1",
  "about": "“THERAPEUTIC PROSTAGLANDIN COMPOUNDS FOR THE TREATMENT OF GLAUCOMA” (ALLERGAN, INC., priority 2006, dated 2007)",
  "key": {"hEP2/Gqs5": {"biological_target": "T1, hEP2/Gqs5 (Homo sapiens, UniProt P43116)", "T1 construct": "expressed in transfected cells; host or cells: HEK-293(EBNA)", "T1 sequence (P43116 whole entry)": "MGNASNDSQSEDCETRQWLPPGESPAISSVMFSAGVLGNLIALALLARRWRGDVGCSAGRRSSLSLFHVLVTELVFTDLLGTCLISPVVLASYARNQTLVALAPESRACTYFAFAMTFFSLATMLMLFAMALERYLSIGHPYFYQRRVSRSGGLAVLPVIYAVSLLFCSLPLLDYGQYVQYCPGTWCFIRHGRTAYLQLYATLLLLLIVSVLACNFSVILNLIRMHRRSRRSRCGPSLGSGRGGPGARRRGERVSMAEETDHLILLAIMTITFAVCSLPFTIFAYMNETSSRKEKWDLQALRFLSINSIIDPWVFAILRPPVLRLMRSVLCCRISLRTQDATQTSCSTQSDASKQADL", "assay": "FLIPR calcium signal study, HEK-293(EBNA) cells", "assay_type": "cell-based", "conditions": "Table 1; Ca2+ signal; NA means not active; read-out: FUNCTIONAL (Ca2+, EC50, nM) HEP 2", "method": "(§1) Cells were seeded at a density of 5x10^4 cells per well in Biocoat® Poly-D-lysine-coated black-wall, clear-bottom 96-well plates (Becton-Dickinson) and allowed to attach overnight in an incubator at 37 °C. Cells were then washed two times with HBSS-HEPES buffer (Hanks Balanced Salt Solution without bicarbonate and phenol red, 20 mM HEPES, pH 7.4) using a Denley Cellwash plate washer (Labsystems). After 45 minutes of dye-loading in the dark, using the calcium-sensitive dye Fluo-4 AM at a final concentration of 2 µM, plates were washed four times with HBSS-HEPES buffer to remove excess dye leaving 100 µl in each well. Plates were re-equilibrated to 37 °C for a few minutes.\nCells were excited with an Argon laser at 488 nm, and emission was measured through a 510-570 nm bandwidth emission filter (FLIPR™, Molecular Devices, Sunnyvale, CA). […] The peak increase in fluorescence intensity was recorded for each well. […] The peak fluorescence change in each drug-containing well was then expressed relative to the controls.\n(§2) Compounds were tested in a high-throughput (HTS) or concentration-response (CoRe) format. In the HTS format, forty-four compounds per plate were examined in duplicates at a concentration of 10^-5 M. To generate concentration-response curves, four compounds per plate were tested in duplicates in a concentration range between 10^-5 and 10^-11 M. The duplicate values were averaged."}, "hDP/Gqs5": {"biological_target": "T2, hDP/Gqs5 (Homo sapiens, UniProt Q13258)", "T2 construct": "expressed in transfected cells; host or cells: HEK-293(EBNA)", "T2 sequence (Q13258 whole entry)": "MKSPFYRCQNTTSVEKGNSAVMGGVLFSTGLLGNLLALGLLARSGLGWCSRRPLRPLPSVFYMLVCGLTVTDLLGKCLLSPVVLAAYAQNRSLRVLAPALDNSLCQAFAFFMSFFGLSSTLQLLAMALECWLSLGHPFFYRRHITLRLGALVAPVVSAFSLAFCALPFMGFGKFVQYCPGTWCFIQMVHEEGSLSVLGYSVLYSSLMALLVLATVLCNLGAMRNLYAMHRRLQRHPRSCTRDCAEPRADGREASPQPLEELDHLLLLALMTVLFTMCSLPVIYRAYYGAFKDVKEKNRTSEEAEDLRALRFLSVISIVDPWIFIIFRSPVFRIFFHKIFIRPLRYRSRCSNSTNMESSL", "assay": "FLIPR calcium signal study, HEK-293(EBNA) cells", "assay_type": "cell-based", "conditions": "Table 1; NA means not active; read-out: FUNCTIONAL (Ca2+, EC50, nM) HDP", "method": "HEK-293(EBNA) cells, stably expressing one type or subtype of recombinant human prostaglandin receptors (prostaglandin receptors expressed: hDP/Gqs5; hEP1; hEP2/Gqs5; hEP3A/Gqi5; hEP4/Gqs5; hFP; hIP; hTP), were cultured in 100 mm culture dishes in high-glucose DMEM medium containing 10% fetal bovine serum, 2 mM I-glutamine, 250 µg/ml geneticin (G418) and 200 µg/ml hygromycin B as selection markers, and 100 units/ml penicillin G, 100 µg/ml streptomycin and 0.25 µg/ml amphotericin B.\nas §1\nCells were excited with an Argon laser at 488 nm, and emission was measured through a 510-570 nm bandwidth emission filter (FLIPR™, Molecular Devices, Sunnyvale, CA). Drug solution was added in a 50 µl volume to each well to give the desired final concentration. The peak increase in fluorescence intensity was recorded for each well. On each plate, four wells each served as negative (HBSS-HEPES buffer) and positive controls (standard agonists: BW245C (hDP); PGE2 (hEP1; hEP2/Gqs5; hEP3A/Gqi5; hEP4/Gqs5); PGF2α (hFP); carbacyclin (hIP); U-46619 (hTP), depending on receptor). The peak fluorescence change in each drug-containing well was then expressed relative to the controls.\nas §2, with “averaged. In either, HTS or CoRe format each compound was tested on at least 3 separate plates using cells from different passages to give an n ≥ 3.” for “averaged.”"}},
  "data": [
    {"smiles": "CCCC1(C(O)c2ccc([C@H]3CCC(=O)[C@@H]3C/C=C\\CCCC(=O)O)cc2)CCC1", "note": "(some centres unmarked) [Entry 6]", "values": [
      {"measurement": "EC50", "setting": "hEP2/Gqs5", "value": 2870, "unit": "nM"},
      {"measurement": "EC50", "setting": "hDP/Gqs5", "value": "> 10000", "unit": "nM"}
    ]}
  ]
}
